Data as given in US20090317419A1, “Tetramers” (Duke University, priority 2008, published 2009).
Ends that are not written are not given here. * marks the point of attachment. Biotin = O=C1N[C@H]2[C@H](CS[C@H]2CCCCC(=O)*)N1

Test system: B Cell Receptor of purified naïve BALB/c splenic B cells
Settings: 10 μg/ml anti-Ig, 37° C., by 15 min

With “Biotin-GGGQQEKNEQELLELDKWASLWN [gp41 MPER tetramer]” as the substance, how does the tetramer downmodulation read?
The tetramer downmodulation was > 80%.
